From ChEMBL document CHEMBL1201862, “PubChem BioAssay data set” (2004) come the findings set out here.

Calls of active or inactive are those of the source.

The subject of assay [1] is BJ. Nature of the assay: cytotoxicity toward Ras-transformed BJeLR fibroblasts, dose response, cell-based, alamar blue fluorescence, cherrypicked samples (AID 2631).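 Further: confirmatory dose-response assay in RAS-dependent BJ fibroblasts engineered with TERT, LT and ST, with cytotoxicity read by fluorescence.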 Format: functional. Particulars: Homo sapiens.
Assay [2] deals with BJ. Kind of assay: cytotoxicity toward BJ-TERT-LT-ST fibroblasts, dose response, cell-based, RAS-independent, luminescence (AID 1935).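 Further: BJ fibroblasts immortalized with TERT plus LT and ST oncogenes.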 In kind it is functional. Particulars: Homo sapiens.
In assay [3] the test system is BJ. Nature of the assay: cells. Format: functional, cell-based. Particulars: Homo sapiens.
Assay [4] concerns BJ. Nature of the assay: cytotoxicity toward BJ-TERT fibroblasts, dose response, cell-based, RAS-independent, luminescence (AID 1933). In kind it is functional. Particulars: Homo sapiens.
A short description of assay [5]: cytotoxicity toward DRD oncogenic fibroblasts, dose response, cell-based, non-viral oncogenic, luminescence (AID 1934). Format: functional. Particulars: Homo sapiens.
The target in assay [6] is T1, Endoribonuclease toxin MazF (Escherichia coli K-12, UniProt P0AE70).
T1 sequence (P0AE70 whole entry): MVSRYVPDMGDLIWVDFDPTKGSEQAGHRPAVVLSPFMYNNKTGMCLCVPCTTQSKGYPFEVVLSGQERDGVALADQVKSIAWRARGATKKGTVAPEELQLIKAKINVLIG
Nature of the assay: MazF toxin RNase activators, dose response, biochemical, fluorescence, single-stranded RNA substrate, uHTS hits (AID 588481). In kind it is functional.

Assay [7] deals with T2, Zinc finger protein mex-5 (Caenorhabditis elegans, UniProt Q9XUB2).
T2 sequence (Q9XUB2 whole entry): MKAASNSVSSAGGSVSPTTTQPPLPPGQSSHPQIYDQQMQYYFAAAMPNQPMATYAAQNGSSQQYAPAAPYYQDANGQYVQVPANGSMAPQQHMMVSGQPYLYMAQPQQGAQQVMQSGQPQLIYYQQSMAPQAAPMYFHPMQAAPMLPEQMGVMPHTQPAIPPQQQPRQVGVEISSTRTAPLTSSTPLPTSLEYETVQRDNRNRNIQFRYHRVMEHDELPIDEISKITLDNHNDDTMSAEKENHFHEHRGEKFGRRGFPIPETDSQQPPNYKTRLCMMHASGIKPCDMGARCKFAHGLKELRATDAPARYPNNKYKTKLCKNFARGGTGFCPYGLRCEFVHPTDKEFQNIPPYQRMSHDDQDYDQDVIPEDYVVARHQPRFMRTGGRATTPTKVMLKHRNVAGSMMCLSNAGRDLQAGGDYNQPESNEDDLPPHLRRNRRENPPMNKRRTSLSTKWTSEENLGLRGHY
Kind of assay: MEX-5/TCR-2 RNA interaction inhibitors, dose response, biochemical, C. elegans, fluorescence polarization (AID 1960). A general note: Polarisation of emitted light reports the rotation of a fluorescent probe.

Assay [8] deals with T3, RNA-binding protein pos-1 (Caenorhabditis elegans, UniProt G5EF15).
T3 sequence (G5EF15 whole entry): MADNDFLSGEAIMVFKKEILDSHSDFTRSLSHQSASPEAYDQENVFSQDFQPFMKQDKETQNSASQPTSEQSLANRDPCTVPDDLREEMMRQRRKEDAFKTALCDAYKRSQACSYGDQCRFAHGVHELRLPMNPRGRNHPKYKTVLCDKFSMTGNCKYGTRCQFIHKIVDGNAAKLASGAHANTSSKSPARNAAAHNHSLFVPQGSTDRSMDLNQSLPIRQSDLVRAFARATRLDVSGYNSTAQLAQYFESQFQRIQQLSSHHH
Kind of assay: inhibitors of POS-1/mex-3 RNA binding, dose response, biochemical, fluorescence polarization (AID 1964).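 Further: purified POS-1 fused to maltose binding protein made in E. coli; potency of compounds blocking POS-1 binding to fluorescent RNA.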

Assay [9] addresses T1, Endoribonuclease toxin MazF. Kind of assay: fluorescent RNA oligo signal without MazF, dose response, counter-screen for MazEF activator project, biochemical, fluorescence, single-stranded RNase substrate (AID 588502). In kind it is functional. (In general: Counterscreens check selectivity or assay interference.)
Assay [10] has as its target T4, Sentrin-specific protease 8 (Homo sapiens, UniProt Q96LD8).
T4 sequence (Q96LD8 whole entry): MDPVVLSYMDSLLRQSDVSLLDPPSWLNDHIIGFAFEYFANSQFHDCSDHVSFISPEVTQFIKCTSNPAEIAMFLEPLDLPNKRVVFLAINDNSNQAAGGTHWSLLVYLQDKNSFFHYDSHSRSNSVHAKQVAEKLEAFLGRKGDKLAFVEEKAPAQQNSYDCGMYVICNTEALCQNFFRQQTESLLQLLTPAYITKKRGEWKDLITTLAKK
Nature of the assay: SENP8 protease inhibitors, SAR follow-up, biochemical, luminescence (AID 504501). Format: functional.

In assay [11] the target is T5, Sentrin-specific protease 7 (Homo sapiens, UniProt Q9BQF6).
T5 sequence (Q9BQF6 whole entry): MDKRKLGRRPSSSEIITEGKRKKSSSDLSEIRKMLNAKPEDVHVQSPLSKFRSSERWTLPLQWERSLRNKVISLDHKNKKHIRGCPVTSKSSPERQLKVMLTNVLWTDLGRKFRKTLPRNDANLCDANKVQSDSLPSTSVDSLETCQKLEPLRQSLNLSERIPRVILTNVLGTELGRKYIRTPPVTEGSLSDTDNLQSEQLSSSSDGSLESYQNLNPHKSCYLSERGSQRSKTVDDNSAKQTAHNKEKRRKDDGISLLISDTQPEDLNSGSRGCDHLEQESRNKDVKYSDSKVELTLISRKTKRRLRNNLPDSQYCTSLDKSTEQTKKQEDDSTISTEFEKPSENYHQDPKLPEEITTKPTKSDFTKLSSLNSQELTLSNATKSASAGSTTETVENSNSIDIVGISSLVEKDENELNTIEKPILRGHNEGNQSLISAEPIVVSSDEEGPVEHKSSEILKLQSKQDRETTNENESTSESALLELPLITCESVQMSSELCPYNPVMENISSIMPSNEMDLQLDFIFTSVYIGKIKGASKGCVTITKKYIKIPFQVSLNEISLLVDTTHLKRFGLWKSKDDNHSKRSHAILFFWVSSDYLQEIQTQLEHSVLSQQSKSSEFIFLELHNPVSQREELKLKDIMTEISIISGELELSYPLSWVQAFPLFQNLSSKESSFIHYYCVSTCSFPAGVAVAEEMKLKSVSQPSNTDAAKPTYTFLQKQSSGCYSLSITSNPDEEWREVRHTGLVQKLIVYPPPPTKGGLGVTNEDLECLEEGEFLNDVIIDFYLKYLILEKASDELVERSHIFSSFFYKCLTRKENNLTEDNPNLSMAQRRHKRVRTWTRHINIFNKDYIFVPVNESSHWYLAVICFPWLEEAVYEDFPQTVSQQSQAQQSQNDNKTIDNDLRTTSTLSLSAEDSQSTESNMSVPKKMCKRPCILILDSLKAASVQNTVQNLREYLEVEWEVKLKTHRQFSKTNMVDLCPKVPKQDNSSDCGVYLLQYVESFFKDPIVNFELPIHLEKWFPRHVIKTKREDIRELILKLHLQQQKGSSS
Nature of the assay: SENP7 protease inhibitors, SAR follow-up, biochemical, luminescence (AID 504497). In kind it is functional.

A further assay has as its target T6, Caspase-3 (Homo sapiens, UniProt P42574).
T6 sequence (P42574 whole entry): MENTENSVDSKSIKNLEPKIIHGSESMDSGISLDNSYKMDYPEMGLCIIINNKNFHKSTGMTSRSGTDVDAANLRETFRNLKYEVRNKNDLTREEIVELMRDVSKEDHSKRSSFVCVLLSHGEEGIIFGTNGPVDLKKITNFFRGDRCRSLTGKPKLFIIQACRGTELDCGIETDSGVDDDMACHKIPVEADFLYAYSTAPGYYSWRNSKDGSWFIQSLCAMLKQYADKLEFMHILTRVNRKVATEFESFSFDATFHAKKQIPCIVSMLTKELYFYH
Nature of the assay: SAR Analysis of small molecule inhibitors of Sentrin-specific proteases (SENPs) using a Caspase-3 Selectivity assay. [Related pubchem assays (depositor defined):AID2540, AID2599, AID434973, AID489001]. Format: functional.

The target in assay [12] is T7, Sentrin-specific protease 6 (Homo sapiens, UniProt Q9GZR1).
T7 sequence (Q9GZR1 whole entry): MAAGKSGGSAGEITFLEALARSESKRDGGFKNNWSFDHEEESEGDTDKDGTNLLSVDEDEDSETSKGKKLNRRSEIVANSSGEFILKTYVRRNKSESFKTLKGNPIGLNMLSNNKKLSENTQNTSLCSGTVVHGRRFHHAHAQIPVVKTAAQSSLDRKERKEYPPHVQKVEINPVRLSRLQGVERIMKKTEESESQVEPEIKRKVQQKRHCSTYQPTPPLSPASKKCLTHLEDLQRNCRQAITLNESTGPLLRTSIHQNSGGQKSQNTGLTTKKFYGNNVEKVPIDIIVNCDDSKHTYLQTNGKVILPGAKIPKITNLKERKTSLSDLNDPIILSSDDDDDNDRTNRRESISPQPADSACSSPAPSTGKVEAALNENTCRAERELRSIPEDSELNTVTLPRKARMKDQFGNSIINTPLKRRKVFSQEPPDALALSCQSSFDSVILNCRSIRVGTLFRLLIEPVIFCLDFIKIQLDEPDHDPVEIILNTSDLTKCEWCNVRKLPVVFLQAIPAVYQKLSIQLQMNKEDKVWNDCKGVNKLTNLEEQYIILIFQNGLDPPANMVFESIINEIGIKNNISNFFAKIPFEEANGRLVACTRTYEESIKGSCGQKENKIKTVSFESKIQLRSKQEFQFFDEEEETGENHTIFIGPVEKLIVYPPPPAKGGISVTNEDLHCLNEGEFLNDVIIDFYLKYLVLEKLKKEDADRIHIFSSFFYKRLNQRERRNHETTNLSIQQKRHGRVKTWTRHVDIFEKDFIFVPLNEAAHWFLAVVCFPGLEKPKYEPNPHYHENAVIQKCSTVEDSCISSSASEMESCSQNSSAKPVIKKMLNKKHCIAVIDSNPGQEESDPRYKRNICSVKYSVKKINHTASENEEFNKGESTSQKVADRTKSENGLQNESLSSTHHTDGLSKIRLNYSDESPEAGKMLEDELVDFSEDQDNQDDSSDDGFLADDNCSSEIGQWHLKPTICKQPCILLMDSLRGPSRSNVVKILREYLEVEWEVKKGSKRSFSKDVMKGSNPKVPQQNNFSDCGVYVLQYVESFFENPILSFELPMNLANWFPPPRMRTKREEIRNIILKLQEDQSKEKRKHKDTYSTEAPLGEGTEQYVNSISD
Nature of the assay: SAR Analysis of small molecule inhibitors of Sentrin-specific protease 6 (SENP6) using a Luminescent assay. [Related pubchem assays (depositor defined):AID2582, AID2599]. In kind it is functional.

The EC50 is the concentration needed to bring the measured effect to its halfway point. For `CSc1cc(-c2ccccc2)n(Cc2ccccc2Cl)c(=O)c1C#N`, the EC50 in the assay with BJ [1] was 1.92 µM (active); in the assay on BJ [2], 33.6 µM (inconclusive); with BJ [3], 43.8 µM (active); in the assay on BJ [4], 10.1 µM (inconclusive); in [5], 3.67 µM (active).
In the case of `CCCCOc1cccc(C2C(C(=O)c3ccc(C)o3)=C(O)C(=O)N2c2nnc(C)s2)c1` (stereo unspecified), the EC50 in assay [6] was > 99 µM (inactive); in assay [7], 77.4 µM (active); in assay [8] it was 102 µM (active); in assay [9], 20.4 µM (inactive).
By IC50 is commonly meant the concentration needed to halve the response being measured. For the compound `O=[N+]([O-])c1ccccc1CNCCc1c[nH]c2ccccc12`, the IC50 (in assay [10]; in assay [11]; on Caspase-3; in assay [12]) was > 99 µM (inactive) throughout.
In the case of `CN(C)c1nc(NCc2ccccc2)nc(N/N=C/c2ccc(Br)cc2)n1`, the IC50 (in [10]; in [11]; at Caspase-3; in assay [12]) was > 99 µM (inactive) in each case.
As for `Cc1cccc(N/N=C/c2c[nH]c3ccccc23)c1`, the IC50 in assay [10] is 34.5 µM (active); in [11] it was 18 µM (active); at Caspase-3 it was > 99 µM (inactive); in [12], 32 µM (active).
